Measured values from US20260242359A1, “IRHOM2 INHIBITORS AND USES THEREOF” (NEW YORK SOCIETY FOR THE RELIEF OF THE RUPTURED AND …, priority 2023, published 2026).

Tested on: LPS-induced release of endogenous TNFα from human peripheral blood mononuclear cells (PBMCs)
Test: Example 13: ELISA-based TNFα release assay, LPS-induced, PBMCs from healthy donor
Assay type: cell-based
Conditions: 10 μM final concentration, LPS 50 ng/ml, delta Buffer stimulated vs unstimulated = 100% inhibition; for inhibition at 10 µM: Homo sapiens, PBMC
Description: In the following study, ELISA-based TNFα release assay was performed to verify the inhibitory effects of Compounds 1, 2, 3, 4, 5, and 7 on LPS-induced release of endogenous TNFα from primary human material obtained from healthy donor using peripheral blood mononuclear cells (PBMCs). The ELISA-based TNFα release assay that was used in this example is described below.
In brief, on day 1, Nunc black MaxiSorp® 96-well plates (Thermo Fisher Scientific, USA) were coated overnight with 100 μl per well of mouse anti-human TNFα capture antibody (provided as part of the DuoSet ELISA kit) at 4 μg/ml TBS at 4° C. On day 2, the capture antibody solution was removed and MaxiSorp® plates were blocked with 300 μl per well of TBS, 1% BSA at room temperature for 3 hours. Meanwhile, 20,000 PBMCs from healthy donor (SciRhom GmbH, Germany) in 80 μl of normal growth medium were seeded in each well of Greiner CELLSTAR V-bottom 96-well plates (Thermo Fisher Scientific, USA) and pre-incubated with 20 μl per well of standard growth medium supplemented with Batimastat (BB94, Abcam, UK) at 50 μM as positive control (for a final concentration of 10 μM in the resulting 100 μl sample volume), compounds of the invention at 50 μM (for a final concentration of 10 μM in the resulting 100 μl sample volume) and in case of Buffer stimulated and unstimulated controls with DMSO (Carl Roth, Germany) at 50 μM (for a final concentration of 10 μM in the resulting 100 μl sample volume) at 37° C., 5% CO2 for 30 minutes. Subsequently, cells (except those for unstimulated controls) were stimulated with 20 μl per well of LPS (Sigma-Aldrich, USA) at 300 ng/ml growth medium for a final concentration of 50 ng/ml at 37° C., 5% CO2 for 2 hours. Afterwards, the 96-well plates were centrifuged to pellet cells. In parallel, blocking buffer was removed from the MaxiSorp® plates and plates were washed 4 times with 350 μl per well of TBS-T (Carl Roth, Germany) on a 96-head plate washer (Tecan Group, Switzerland). To avoid drying-up, 30 μl of TBS were added to each well of the MaxiSorp® plates immediately, followed by the transfer of 70 μl of cell-free supernatant per sample. Additionally, 100 μl of recombinant human TNFα protein (provided as part of the DuoSet ELISA kit) diluted in TBS at defined concentrations were added to the plate as standard references. Thereafter, 100 μl per well of biotinylated goat anti-human TNFα detection antibody (provided as part of the DuoSet ELISA kit) at 50 ng/ml TBS were added and, protected from direct light, plates were incubated at room temperature for 2 hours. After 4 times washing with 350 μl per well of TBS-T (Carl Roth, Germany) on a 96-head plate washer (Tecan Group, Switzerland) and careful removal of all buffer traces after the fourth cycle, 100 μl of streptavidin-AP (R&D Systems, USA) diluted 1:10,000 in TBS were added to each well and, again protected from direct light, plates were incubated at room temperature for 30 minutes. Following another round of 4 times washing with 350 μl per well of TBS-T (Carl Roth, Germany) on a 96-head plate washer (Tecan Group, Switzerland) and careful removal of all buffer traces after the fourth cycle, 100 μl of AttoPhos substrate solution (Promega, USA) was added for incubation in the dark at room temperature for 1 hour. Using an infinite M1000 PRO (Tecan Group, Switzerland) microplate reader, the fluorescence of each well was collected at an excitation wavelength of 435 nm and an emission wavelength of 555 nm.
The delta between Buffer stimulated and Buffer unstimulated was defined 100% inhibition.

Structure (SMILES)	inhibition at 10 µM (2 h)	inhibition of LPS-induced release of TNFα from human PBMCs (2 hours)	inhibition at 10 µM (2 hours)
CCOC(=O)c1ccc(Nc2nc3nonc3n3nnnc23)cc1 [Compound 2]	98.6%		
Cc1c(C(=O)NCc2cccs2)sc(=O)n1Cc1ccccc1 [Compound 4]	42%		
O=C(c1c(Cl)cccc1Cl)N1CCC(Cc2ccc(F)cc2)CC1 [Compound 3]	76.3%		
Cc1c(C(=O)NCc2cccs2)sc(=O)n1Cc1ccccc1F [Compound 5]	51.3%		
CNC(=O)[C@H](Cc1ccccc1)NC(=O)[C@H](CC(C)C)[C@H](CSc1cccs1)C(=O)NO [Batimastat, reference compound]	99.5%	114.9%	
CCC(=O)NCCc1c(/C=C2/C(=O)NC(=O)N(c3ccc(C)cc3C)C2=O)[nH]c2ccccc12 [Compound 1]			99.5%
Cc1c(C(=O)NCc2ccco2)sc(=O)n1Cc1ccccc1F [Compound 7]	72.5%		
